Data: patent US10307418B2, “Azole pharmaceutical formulations for parenteral administration and methods for preparing and using the same as treatment of diseases sensitive to azole compounds” (Platform Brightworks Two, Ltd., priority 2010, dated 2019)
In brackets after ≈: the same amount, converted by molar mass. Several values for one entry are separate records, joined by “and”; a condition that tells them apart may be missing. Equal entries are not always repeated. Where two headings read alike, the source gives them in different places.

Key:
[1] = Maximum solubility of ITZA and azole analogues in solvents (HPLC); assay type: physicochemical; conditions: for solubility at 30 min: organic solvent or mixture, thermodynamic from solid
Method: ITZA and its analogues were dissolved in various solvents incubated at 37° C. for 30 minutes, cooled down to room temperature, centrifuged at 14,000 rpm for 1 min. The supernatant was analyzed using HPLC to determine the maximum solubility of ITZA and its azole analogues.
In a first step the maximum ITZA solubility in various single solvents was determined. To this end, ITZA and its analogs were dissolved in various solvents, incubated at 37° C. for 30 minutes, cooled down to room temperature, centrifuged at 14,000 rpm for 1 min. The supernatant was analyzed using HPLC to determine the maximum solubility of the respective agent.
The solubility of ITZA was determined in several individual vehicles. Briefly, a known amount of ITZA drug, formulated as a powder (Sigma Inc., St Louis, Mo.), was equilibrated in the respective solvent at RT over 1-4 hours. An aliquot was removed, filtered, and prepared for HPLC to determine maximum solubility at room temperature. Based on the ITZA solubility in each vehicle, different solvents were mixed according to the cosolvency principle in an attempt to arrive at an enhanced stable solubility. […] The stock formulation was then diluted with a final diluent, i.e. NS or D5W or DlOW, to yield a stable use-formulation. The desired range of the final use-formulation was between 1 and 5 mg/mL, as it would result in a final volume that could be safely and conveniently infused intravascularly.
An excess of ITZA as a powder was added to a multitude of chemical solvents (Table 1) at RT. Each mixture was intermittently vortexed, placed in a dark environment and checked visually for up to 4 hours for evidence of solubilization. Following centrifugation to remove solid particles, small samples were withdrawn after consecutive time intervals and the ITZA concentration was determined by HPLC as described.

[2] = Plasma pharmacology after IV injection in mice
Method: (§1) Swiss Webster mice were used for pharmacokinetic studies of ITZA and its analogs. The dilation of the vein was accomplished by warming up the mice using a heat lamp. […] Mice were allowed to recover and blood samples were obtained through cardiac puncture under general anesthesia with Isoflurane/oxygen by vaporizer at various time points. Plasma was obtained by centrifugation of blood sample at 3,200 rpm for 5 min. at 4° C. Plasma proteins were precipitated by adding acetonitrile (twice the volume of plasma). The mixture was vortexed for 30 seconds and centrifuged for 5 min. at 14,000 rpm. The supernatant was saved and was injected into the HPLC to determine the respective drug concentrations.
(§2) Unless specified, the analogous experiments were performed using POSA as an alternative to ITZA; Swiss Webster mice of both sexes with a body weight of 25-30 g were used for the in vivo pharmacology experiments (Harlan-Sprague-Dawley, Houston, Tex.). The animals were allowed a minimum of 7 days after arrival to accommodate to the new environment and allowed free access to commercial feed and tap water prior to and during the experimentation period. The animals were housed in an Association for the Assessment and Accreditation of Laboratory Animal Care International (AAALAC)-approved facility that meets the requirements of the USDA, NIH, and DHHS.
(§3) The ITZA dose of 5 mg/kg BW was determined to be a suitable test dose that could be administered to the mice as a slow (3-4 min) IV bolus injection without requiring sedation, but could be performed with only minimal physical restraint of the animals in a standard funnel-type cage.
(§4) The ITZA was formulated in the H3 solvent system described above as the preferred solvent to a stock concentration of 4-5 mg/mL and then diluted with NS (ratio 1:1) so the intended dose (5.0 mg/kg BW) could be injected in a tail vein in a total volume of approximately 100 μL. […] No sedative premedication was used for the mice in this experiment to avoid the possible induction of microsomal liver enzymes that could modify ITZA metabolism. Thus, the animals were unanesthetized, being only physically restrained during and immediately following the drug injection.
(§5) Blood samples (0.5-1.0 mL) were drawn through cardiac puncture into heparinized tubes at selected time points prior to the drug infusion (“blank”), and from 5 min to 1 hour after drug injection for determination of ITZA concentrations, and for 5 min to about 7 hrs in the POSA experiment. The mice were exposed to 2% -4% isoflurane for general anesthesia. Blood samples were obtained through cardiac puncture and immediately deposited in heparinized microcentrifuge tubes.

[3] = cited from earlier work
[4] = in vivo; conditions: both, Swiss Webster, mouse, plasma, iv, 5 mg/kg
Method: as §1, §2, §3, §4, §5

[5] = Stability of ITZA/POSA in solvent vehicles (HPLC); assay type: physicochemical; design: POSA concentration: unit: mg/mL; conditions: for POSA concentration: single determination
[6] = POSA in H3G/5% Dextrose., 24 hr

CC[C@@H]([C@H](C)O)n1ncn(-c2ccc(N3CCN(c4ccc(OC[C@@H]5CO[C@@](Cn6cncn6)(c6ccc(F)cc6F)C5)cc4)CC3)cc2)c1=O [POSA, posaconazole]
solubility at 30 min ([1]; solvent H3D (no benzyl alcohol), solvent H3D (no benzyl alcohol), single determination, read-out: Azole solubility, [Drug] mg/mL): 33.8 mg/mL (≈ 48.2 mM) | solubility at 30 min ([1]; solvent H3D (no benzyl alcohol), solvent H3D (no benzyl alcohol), read-out: Azole solubility, Average mg/mL): 35.3 mg/mL (≈ 50.4 mM) | Azole solubility, [Drug] mg/mL ([1]; solvent H3D (no benzyl alcohol), single determination): 35.08 mg/mL and 37.14 mg/mL | solubility at 30 min ([1]; solvent H3G (no benzyl alcohol), solvent H3G (no benzyl alcohol), single determination, read-out: Azole solubility, [Drug] mg/mL): 30.6 mg/mL (≈ 43.7 mM) | solubility at 30 min ([1]; solvent H3G (no benzyl alcohol), solvent H3G (no benzyl alcohol), read-out: Azole solubility, Average mg/mL): 32.2 mg/mL (≈ 45.9 mM) | Azole solubility, [Drug] mg/mL ([1]; solvent H3G (no benzyl alcohol), single determination): 33.86 mg/mL and 32.04 mg/mL | tolerability of IV injection (in words) ([2]; 5.0 mg/kg BW, slow injection over 3-4 min): well accepted | apparent in vivo half-life ([2]; 5 mg/kg IV): 6 to 7 h | time plasma concentrations remain in the fungi-toxic range ([2]; IV dose of 5 mg/kg): in excess of one hour | peak concentration (plasma) ([2]; IV injection of 5 mg/kg over 4 min): 3.2 to 3.3 µg/mL | known plasma half-life ([3]; literature (Ref 24, 32, 42, 45)): 25 to 35 h | half-life after oral administration ([3]; oral drug, literature): 15 to 30 h | half-life [4]: 6 to 7 h | % of 0 hr ([5]; POSA in H3G, 0 hr): 100% | average ([5]; POSA in H3G, 0 hr): 3.70 mg/mL | POSA concentration ([5]; POSA in H3G, 0 hr): 3.76 and 3.69 and 3.66 | % of 0 hr ([5]; POSA in H3G, 2 hr): 102% | average ([5]; POSA in H3G, 2 hr): 3.78 mg/mL | POSA concentration ([5]; POSA in H3G, 2 hr): 3.93 and 3.73 and 3.67 | % of 0 hr ([5]; POSA in H3G, 4 hr): 114% | average ([5]; POSA in H3G, 4 hr): 4.23 mg/mL | POSA concentration ([5]; POSA in H3G, 4 hr): 3.98 and 4.33 and 4.37 | % of 0 hr ([5]; POSA in H3G, 6 hr): 114% | average ([5]; POSA in H3G, 6 hr): 4.23 mg/mL | POSA concentration ([5]; POSA in H3G, 6 hr): 3.98 and 4.33 and 4.37 | % of 0 hr ([5]; POSA in H3G, 8 hr): 97% | average ([5]; POSA in H3G, 8 hr): 3.57 mg/mL | POSA concentration ([5]; POSA in H3G, 8 hr): 3.68 and 3.47 and 3.57 | % of 0 hr ([5]; POSA in H3G, 24 hr): 99% | average ([5]; POSA in H3G, 24 hr): 3.65 mg/mL | POSA concentration ([5]; POSA in H3G, 24 hr): 3.73 and 3.52 and 3.70 | % of 0 hr ([5]; POSA in H3G/5% Dextrose., 0 hr): 100% | POSA concentration ([5]; POSA in H3G/5% Dextrose., 0 hr): 1.76 and 1.68 | % of 0 hr ([5]; POSA in H3G/5% Dextrose., 2 hr): 109% | POSA concentration ([5]; POSA in H3G/5% Dextrose., 2 hr): 1.84 and 1.81 and 2.02 | % of 0 hr ([5]; POSA in H3G/5% Dextrose., 4 hr): 113% | POSA concentration ([5]; POSA in H3G/5% Dextrose., 4 hr): 1.92 and 1.91 and 2.03 | % of 0 hr ([5]; POSA in H3G/5% Dextrose., 6 hr): 109% | POSA concentration ([5]; POSA in H3G/5% Dextrose., 6 hr): 1.75 and 1.93 and 2.01 | % of 0 hr ([5]; POSA in H3G/5% Dextrose., 8 hr): 106% | POSA concentration ([5]; POSA in H3G/5% Dextrose., 8 hr): 1.71 and 1.89 and 1.92 | % of 0 hr [5, 6]: 105% | POSA concentration [5, 6]: 1.78 and 1.80 and 1.87 | % of 0 hr ([5]; POSA in H3d, 0 hr): 100% | average ([5]; POSA in H3d, 0 hr): 3.78 mg/mL | POSA concentration ([5]; POSA in H3d, 0 hr): 3.82 and 3.75 and 3.78 | % of 0 hr ([5]; POSA in H3d, 2 hr): 100% | average ([5]; POSA in H3d, 2 hr): 3.79 mg/mL | POSA concentration ([5]; POSA in H3d, 2 hr): 3.67 and 3.81 and 3.89 | % of 0 hr ([5]; POSA in H3d, 4 hr): 112% | average ([5]; POSA in H3d, 4 hr): 4.24 mg/mL | POSA concentration ([5]; POSA in H3d, 4 hr): 4.00 and 4.15 and 4.56 | % of 0 hr ([5]; POSA in H3d, 6 hr): 118% | average ([5]; POSA in H3d, 6 hr): 4.45 mg/mL | POSA concentration ([5]; POSA in H3d, 6 hr): 4.20 and 4.32 and 4.82 | % of 0 hr ([5]; POSA in H3d, 8 hr): 106% | average ([5]; POSA in H3d, 8 hr): 3.99 mg/mL | POSA concentration ([5]; POSA in H3d, 8 hr): 4.18 and 3.77 and 4.03 | % of 0 hr ([5]; POSA in H3d, 24 hr): 101% | average ([5]; POSA in H3d, 24 hr): 3.83 mg/mL | POSA concentration ([5]; POSA in H3d, 24 hr): 3.81 and 3.75 and 3.92 | % of 0 hr ([5]; POSA in H3d/5% Dextrose, 0 hr): 100% | POSA concentration ([5]; POSA in H3d/5% Dextrose, 0 hr): 1.75 and 1.77 and 1.81 | % of 0 hr ([5]; POSA in H3d/5% Dextrose, 2 hr): 100% | POSA concentration ([5]; POSA in H3d/5% Dextrose, 2 hr): 1.77 and 1.74 and 1.83 | % of 0 hr ([5]; POSA in H3d/5% Dextrose, 4 hr): 111% | POSA concentration ([5]; POSA in H3d/5% Dextrose, 4 hr): 1.88 and 1.81 and 2.20 | % of 0 hr ([5]; POSA in H3d/5% Dextrose, 6 hr): 109% | POSA concentration ([5]; POSA in H3d/5% Dextrose, 6 hr): 1.95 and 1.93 and 1.94 | % of 0 hr ([5]; POSA in H3d/5% Dextrose, 8 hr): 102% | POSA concentration ([5]; POSA in H3d/5% Dextrose, 8 hr): 1.86 and 1.68 and 1.90 | % of 0 hr ([5]; POSA in H3d/5% Dextrose, 24 hr): 103% | POSA concentration ([5]; POSA in H3d/5% Dextrose, 24 hr): 1.78 and 1.79 and 1.93
